{"source": "patent US9084770B2", "about": "“Modulation of insulin like growth factor I receptor expression in cancer” (Antisense Therapeutics, Ltd., priority 2008, dated 2015)", "key": {"[1]": {"test_system": "LNCaP cells", "assay": "LNCaP cell cycle and apoptosis, flow cytometry with propidium iodide", "assay_type": "cell-based, human", "details": "100 nM", "description": "(§1) Established methods were used to test the activity of IGF-IR antisense oligonucleotide on LNCaP and PC-3 cell growth (crystal violet assay) and apoptosis (FACS). Dose- and sequence-specific suppression of IGF-IR mRNA and protein expression in ATL1101-treated LNCaP and PC3 PC cell lines in vitro were observed by QT-PCR and western blotting. Effects of the IGF-IR antisense oligonucleotide on various putative targets, including IGF-IR and downstream targets were evaluated using western blotting.\n(§2) The Effect of IGF-IR silencing with IGF-IR antisense oligonucleotide (ATL1101) on LNCaP and PC3 cell apoptosis and cell cycle is shown in FIGS. 4A(i)-(ii), 4B, 4C(i)-(ii), and Table 2. Cells were transfected with indicated concentrations of ATL1101, control oligodeoxynucleotide or oligofectamine as in FIGS. 1A(i)-1B(ii). Two days after treatment, cell cycle analysis was determined by flow cytometry using propidium iodide staining. […] In FIGS. 4C(i)-(ii), LNCaP (FIG. 4C (i)) or PC-3 (FIG. 4C (ii)) cells were transfected with indicated concentration of ATL1101 or control oligodeoxynucleotide (ISIS 306064) for two days. Cells were then cultured in FBS media for one day and in serum-free media for one day. Whole cell lysates (30 μg) were subjected to SDS-PAGE and immunoblotted to assess Cyclin D1, Cyclin E, p-RB, total Rb, and p27 protein levels. Oligo, oligofectamine treated cells only."}, "[2]": {"test_system": "Ptx-R PC3 cells", "assay": "Ptx-R PC3 viable cells after transfection with or without Paclitaxel", "assay_type": "cell-based, human", "details": "100 nM Paclitaxel and 25 nM oligonucleotide", "description": "The number of viable PC3 and PtxR PC3 cells was determined 72 hours after the second transfection.\n[…] The number of viable cells remaining was determined 72 hours after the second transfection treatment. ATL1101 treatment enhances the Ptx-R sensitivity to Paclitaxel under standard culture conditions. For example, there was approximately 45% cell viability with 100 nM Paclitaxel and 25 nM control oligodeoxynucleotide whereas, only 25 nM Paclitaxel is needed in the presence of 25 nM ATL1101 to produce the same reduction in cell viability."}, "[3]": {"test_system": "LNCaP cells", "assay": "LNCaP cell viability, crystal violet assay", "assay_type": "cell-based, human", "details": "three days after treatment", "description": "as §1\n(§3) Cells were transfected with indicated concentrations of ATL1101, control oligodeoxynucleotides or oligofectamine as in FIGS. 1A(i)-1A(ii). Three days after treatment, cell viability was determined by crystal violet assay. Viable cell density was normalized to that of cells treated with oligofectamine. Points, means of triplicate analysis; bars, SE. *, p<0.05 differs from control oligodeoxynucleotide treatment group. **, p<0.01 differs from control oligodeoxynucleotide treatment group by Student's t test."}, "[4]": {"test_system": "IGF-IR mRNA", "assay": "IGF-IR mRNA expression in transfected LNCaP and PC-3 cells, quantitative RT-PCR", "assay_type": "cell-based, human", "details": "LNCaP and PC-3 cells, maximal doses tested", "description": "as §1\nFIGS. 1A(i)-1A(ii) show the sequence-specific and dose-dependent suppression of IGF-IR mRNA expression levels by ATL1101 in LNCaP (FIG. 1A (i)) and PC-3 (FIG. 1A (ii)) cells. […] One day after treatment, total RNA was extracted, and IGF-IR mRNA expression was analyzed by quantitative RT-PCR. IGF-IR mRNA levels were normalized to levels of GAPDH mRNA and expressed here as mean±SE. ***, p<0.001 differ from control (oligofectamine only) by Student's t test. “Control” cells were treated with oligofectamine only. In LNCaP cells, IGF-IR expression was >70% suppressed by 10 nM ATL1101 and >90% at 200 nM ATL1101. In PC3 cells, IGF-IR expression was suppressed ˜40% at 10 nM ATL1101, >50% at 50 nM ATL1101 and ˜80% at 200 nM. Control oligodeoxynucleotide (ISIS 306064) did suppress IGF-IR mRNA expression but by less than 25% at maximal doses tested"}, "[5]": {"test_system": "insulin receptor IR-A, IR-B, IR-β protein", "assay": "Insulin receptor transcripts and protein in PC3 Ptx-R cells", "assay_type": "cell-based, human", "text": "(§4) The PC3 Ptx-R cells retain sensitivity to ATL1101-induced IGF-IR down regulation at the mRNA and protein level as shown in FIGS. 11A-C. […] ATL1101 and the control oligodeoxynucleotide ISIS 306064 had no effect on either of the alternative spliced isoform transcripts of the insulin receptor, IR-A, IR-B or IR-β protein or vinculin protein levels."}, "[6]": {"test_system": "IGF-IRβ subunit protein", "assay": "IGF-IRβ subunit protein in PC3 Ptx-R cells", "assay_type": "cell-based, human", "details": "10 to 200 nM, compared to oligofectamine transfection reagent", "text": "as §4"}, "[7]": {"test_system": "IGF-IRβ, p-AKT, p-ERK1/2, cleaved PARP", "assay": "Intracellular signaling in LNCaP and PC3 cells, immunoblot", "assay_type": "cell-based, human", "details": "100 nM", "description": "The suppression of intracellular signaling in IGF-IR antisense oligonucleotide-treated LNCaP (FIG. 3A) and PC3 (FIG. 3B) in vitro is shown in FIGS. 3A-3B. LNCaP or PC3 cells were transfected with 100 nM ATL1101 or control oligodeoxynucleotide (ISIS 306064) for two days. Cells were then cultured in FBS media for one day and in serum-free media for one day. Whole cell lysates (30 μg) were subjected to SDS-PAGE and immunoblotted to assess IGF-IRβ, p-AKT, total AKT, p-ERK1/2, total ERK1/2, cleaved PARP, and vinculin protein levels. Oligo, oligofectamine treated cells only."}, "[8]": {"test_system": "PC3 cells", "assay": "PC3 cell cycle and apoptosis, flow cytometry with propidium iodide", "assay_type": "cell-based, human", "details": "PC3, FBS condition, 200 nM", "description": "as §1, §2"}, "[9]": {"test_system": "PC3 tumors", "assay": "PC-3 xenograft with Paclitaxel, mean tumor volume", "assay_type": "in vivo, mice", "details": "15 mg/kg i.p. oligonucleotide plus Paclitaxel", "text": "In vivo treatments in a PC-3 xenograft model were done substantially as described by Zellweger et al., 2001. PC3 cells (2×10^6 cells) were xenografted by subcutaneous injection into recipient 6-8 week-old athymic nude (nu/nu) mice. When tumors reached 200 mm^3, mice were randomly assigned to one of two arms for treatment with 2′-MOE-modified IGF-IR antisense oligonucleotide (ATL1101) plus Paclitaxel, or mismatch control oligodeoxynucleotide ISIS 306064 plus Paclitaxel. Each experimental group consisted of 10 mice. After randomization, 15 mg/kg of ATL1101 antisense oligonucleotide or mismatch control oligonucleotide were injected intraperitoneal (i.p.) into each mouse once daily for the first 5 days and 3 times a week (every other day) thereafter for 7 weeks. On days 7, 9, 11, and on days 21, 23, and 25, 0.5 mg of polymeric micellar Paclitaxel was administered once daily by i.v. injection. Mean Tumor volume was measured once weekly for 8 weeks and calculated by the formula length×width×depth×0.5236.\nIn PC3 mice, after 5 weeks of treatment, mean tumor size in mice treated with Paclitaxel and mismatch control oligodeoxynucleotide was 326+/−40.9 mm^3 compared with 175+/−20.1 mm^3 in mice treated with Paclitaxel and ATL1101, or 53.7% of control (p<0.01). After 8 weeks of treatment, mean tumor size in mice treated with Paclitaxel and mismatch control oligodeoxynucleotide was 1417+/−222 mm^3 compared with 507+/−79.3 mm^3 in mice treated with Paclitaxel and ATL1101, or 35.8% of control (p<0.01)."}, "[10]": {"test_system": "IGF-IR mRNA", "assay": "IGF-IR mRNA in PC3 Ptx-R cells", "assay_type": "cell-based, human", "details": "10 to 200 nM, compared to oligofectamine transfection reagent", "text": "as §4"}, "[11]": {"test_system": "PC3 cells", "assay": "PC3 cell viability, crystal violet assay", "assay_type": "cell-based, human", "details": "three days after treatment", "description": "as §1, §3"}}}
{"substance": "ISIS 306064: 8 nucleotide mismatch control oligonucleotide; Negative Control ODN (CCAATGATAACAAACGCGGA; chemistry not given here) [reference compound]", "values": [{"measurement": "% of total cells, G0/G1", "setting": "[1]; CSS condition", "value": 70.1, "unit": "%"}, {"measurement": "% of total cells, G2/M", "setting": "[1]; CSS condition", "value": 4.4, "unit": "%"}, {"measurement": "% of total cells, S", "setting": "[1]; CSS condition", "value": 3.8, "unit": "%"}, {"measurement": "% of total cells, Sub G0/G1", "setting": "[1]; CSS condition", "value": 21.7, "unit": "%"}, {"measurement": "subG0/G1 + G0/G1:S + G2/M", "setting": "[1]; CSS condition", "value": 11.2}, {"measurement": "% of total cells, G0/G1", "setting": "[1]; FBS condition", "value": 65.4, "unit": "%"}, {"measurement": "% of total cells, G2/M", "setting": "[1]; FBS condition", "value": 12.6, "unit": "%"}, {"measurement": "% of total cells, S", "setting": "[1]; FBS condition", "value": 11.2, "unit": "%"}, {"measurement": "subG0/G1 + G0/G1:S + G2/M", "setting": "[1]; FBS condition", "value": 3.2}, {"measurement": "% of total cells, Sub G0/G1", "setting": "[1]; FBS condition, two days after treatment", "value": 10.8, "unit": "%"}, {"measurement": "cell viability", "setting": "[2]", "value": "approximately 45%"}, {"measurement": "cytotoxic effect on cell viability", "setting": "[3]", "value": "dose-dependent cytotoxic effect"}, {"measurement": "suppression of IGF-IR mRNA expression", "setting": "[4]", "value": "less than 25%"}, {"measurement": "insulin receptor IR-A, IR-B transcripts or IR-β protein levels", "setting": "[5]", "value": "no effect"}, {"measurement": "IGF-IRβ subunit protein levels", "setting": "[6]", "value": "no effect"}, {"measurement": "IGF-IR expression, down-stream kinase signaling and induction of PARP cleavage versus oligofectamine-treated cells", "setting": "[7]", "value": "indistinguishable"}, {"measurement": "% of total cells, G0/G1", "setting": "[8]", "value": 58.5, "unit": "%"}, {"measurement": "% of total cells, G2/M", "setting": "[8]", "value": 18.2, "unit": "%"}, {"measurement": "% of total cells, S", "setting": "[8]", "value": 13.7, "unit": "%"}, {"measurement": "% of total cells, Sub G0/G1", "setting": "[8]", "value": 9.6, "unit": "%"}, {"measurement": "subG0/G1 + G0/G1:S + G2/M", "setting": "[8]", "value": 2.1}, {"measurement": "mean tumor size", "setting": "[9]; after 5 weeks of treatment", "value": "326+/−40.9 mm^3"}, {"measurement": "mean tumor size", "setting": "[9]; after 8 weeks of treatment", "value": "1417+/−222 mm^3"}, {"measurement": "IGF-IR mRNA levels", "setting": "[10]", "value": "no effect"}, {"measurement": "cytotoxic effect on cell viability", "setting": "[11]", "value": "dose-dependent cytotoxic effect"}]}
